Here are results for two molecules from paper PMC13014312, “Fluorescence Discrimination of Cancer from Inflammation by Selective Targeting Folate Receptor α” (Chemical & Biomedical Imaging, 2025).

Where two headings read alike, the source gives them in different places.

The target in assay [1] is T1, folate receptor α (FRα) (Homo sapiens, UniProt P15328).
T1 construct: gene FOLR1
Kind of assay: 3H-folic acid competition radioligand assay on […] cells transfected with FRα. In kind it is cell-based.

The target in assay [2] is T2, folate receptor β (FRβ) (Homo sapiens, UniProt P14207).
T2 construct: gene FOLR2
T2 sequence (P14207 17-230): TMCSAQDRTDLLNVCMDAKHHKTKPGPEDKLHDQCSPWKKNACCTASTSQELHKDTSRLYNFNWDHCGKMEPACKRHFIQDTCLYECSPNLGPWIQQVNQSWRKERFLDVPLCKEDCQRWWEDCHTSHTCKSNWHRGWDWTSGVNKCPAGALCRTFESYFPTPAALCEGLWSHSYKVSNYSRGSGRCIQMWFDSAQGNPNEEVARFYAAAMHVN
As to the kind of experiment: 3H-folic acid competition radioligand assay on […] cells transfected with FRβ. In kind it is cell-based.

In assay [3] the target is T2, folate receptor β (FRβ). The assay is described as above.

T1 sequence (P15328 25-234): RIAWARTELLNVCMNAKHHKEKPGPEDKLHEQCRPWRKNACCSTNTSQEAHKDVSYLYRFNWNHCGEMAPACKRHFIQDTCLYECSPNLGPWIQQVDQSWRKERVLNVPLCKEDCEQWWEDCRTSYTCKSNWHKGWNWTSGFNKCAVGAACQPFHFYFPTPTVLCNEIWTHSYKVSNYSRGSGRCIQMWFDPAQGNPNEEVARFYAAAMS

Consider `CC1(C)C(=CC=C2CCCC(C=CC3=[N+](CCCCS(=O)(=O)[O-])c4ccc(S(=O)(=O)O)cc4C3(C)C)=C2Oc2ccc(C[C@H](NC(=O)c3ccc(CCc4c[nH]c5[nH]c(N)nc(=O)c45)cc3)C(=O)O)cc2)N(CCCCS(=O)(=O)O)c2ccc(S(=O)(=O)O)cc21` [NY-07], for which the results for the Kd in assay [1] and in assay [2] were 0.0617 µM and 0.487 µM, respectively.

Turning to `Nc1nc(=O)c2nc(CNc3ccc(C(=O)N[C@@H](CCC(=O)O)C(=O)O)cc3)cnc2[nH]1` [folate, folic acid], the Kd entry in assay [3] was “Assessment of K d of folate, OTL38, and NY-07 to FRβ”.

For orientation: Kd means a measure of binding affinity in units of concentration. Low readings indicate a tighter complex, high ones a looser complex.
